Assay results reported in article PMC12846068, “Insights into Transport Function of the Murine Organic Anion-Transporting Polypeptide OATP1B2 by Comparison with Its Rat and Human Orthologues” (Toxics, 2025).

Columns and labels:
rOATP1B2 = molecular target: T1, rOATP1B2 (Rattus norvegicus, UniProt Q9QZX8); experiment: rOATP1B2-mediated uptake of [3H]-E1S and [3H]-TCA in overexpressing HEK293 cells; assay type: cell-based; details: rOATP1B2, 1 µM substrate; E1S 5 min, TCA 10 min
T1 construct: The full-length mOATP1B2 and rOATP1B2 consist of 689 and 678 amino acids
T1 sequence (Q9QZX8 1-687): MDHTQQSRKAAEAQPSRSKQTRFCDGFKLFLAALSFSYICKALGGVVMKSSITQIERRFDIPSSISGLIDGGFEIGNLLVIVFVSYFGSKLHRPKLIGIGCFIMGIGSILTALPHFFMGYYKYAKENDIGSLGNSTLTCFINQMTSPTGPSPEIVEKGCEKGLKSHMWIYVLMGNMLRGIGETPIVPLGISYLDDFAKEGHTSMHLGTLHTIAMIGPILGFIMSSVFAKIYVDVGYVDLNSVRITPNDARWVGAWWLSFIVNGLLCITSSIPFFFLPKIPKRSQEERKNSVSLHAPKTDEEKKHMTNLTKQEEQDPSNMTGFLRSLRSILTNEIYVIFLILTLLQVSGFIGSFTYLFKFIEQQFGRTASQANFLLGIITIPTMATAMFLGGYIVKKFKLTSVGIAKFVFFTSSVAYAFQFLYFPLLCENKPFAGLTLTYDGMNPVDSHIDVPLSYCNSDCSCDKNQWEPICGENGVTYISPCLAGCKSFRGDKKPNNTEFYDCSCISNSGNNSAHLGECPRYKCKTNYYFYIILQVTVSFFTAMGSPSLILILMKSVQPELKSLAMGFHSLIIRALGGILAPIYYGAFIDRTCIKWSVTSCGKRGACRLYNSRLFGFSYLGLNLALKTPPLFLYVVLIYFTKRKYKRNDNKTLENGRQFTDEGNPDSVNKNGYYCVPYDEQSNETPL
Description: (§1) To perform transporter-mediated uptake, both stably transfected cells and control cells (seeding density 2 × 10^5) were cultured for three days in 24-well plates (coated with 0.1 mg/mL poly-D-lysine hydrobromide). Then, 24 h before the start of the transport experiment, the gene expression of mOapt1b2 and rOATP1B2 was induced by 1 µg/mL tetracycline. At the beginning of each experiment, the cells were washed three times with pre-warmed 0.5 mL HBSS incubation buffer (supplemented with 20 mM HEPES, pH 7.4) and equilibrated for at least 20 min as described previously [27]. After aspirating the incubation buffer, the uptake process was started by adding 200 µL HBSS incubation buffer containing radio-labeled and unlabeled substances to each well and incubated at 37 °C for an appropriate time. The uptake was stopped by aspirating the reaction mixture and washing the cells 3 times with 0.4 mL ice-cold PBS buffer. After cell lysis with 0.6 mL of 1N NaOH overnight, the whole content of each well (0.6 mL) was transferred to a 6 mL scintillation vial (Sarstedt) containing 2.5 mL scintillation liquid (Rotiszint®eco plus, Carl Roth). The ^3H content was measured in a scintillation counter (Perkin Elmer TRICarb 2810 or HIDEX 600SL). […]
(§2) The absolute amount (pmol) of the radio-labeled probe substrate uptake was calculated and related to the determined protein values as well as the incubation time. […]

mOATP1B2 = molecular target: T2, mOATP1B2 (Mus musculus, UniProt Q9JJL3); experiment: mOATP1B2-mediated uptake of [3H]-E1S and [3H]-TCA in overexpressing HEK293 cells; assay type: cell-based
T2 construct: The full-length mOATP1B2 and rOATP1B2 consist of 689 and 678 amino acids
T2 sequence (Q9JJL3 1-689): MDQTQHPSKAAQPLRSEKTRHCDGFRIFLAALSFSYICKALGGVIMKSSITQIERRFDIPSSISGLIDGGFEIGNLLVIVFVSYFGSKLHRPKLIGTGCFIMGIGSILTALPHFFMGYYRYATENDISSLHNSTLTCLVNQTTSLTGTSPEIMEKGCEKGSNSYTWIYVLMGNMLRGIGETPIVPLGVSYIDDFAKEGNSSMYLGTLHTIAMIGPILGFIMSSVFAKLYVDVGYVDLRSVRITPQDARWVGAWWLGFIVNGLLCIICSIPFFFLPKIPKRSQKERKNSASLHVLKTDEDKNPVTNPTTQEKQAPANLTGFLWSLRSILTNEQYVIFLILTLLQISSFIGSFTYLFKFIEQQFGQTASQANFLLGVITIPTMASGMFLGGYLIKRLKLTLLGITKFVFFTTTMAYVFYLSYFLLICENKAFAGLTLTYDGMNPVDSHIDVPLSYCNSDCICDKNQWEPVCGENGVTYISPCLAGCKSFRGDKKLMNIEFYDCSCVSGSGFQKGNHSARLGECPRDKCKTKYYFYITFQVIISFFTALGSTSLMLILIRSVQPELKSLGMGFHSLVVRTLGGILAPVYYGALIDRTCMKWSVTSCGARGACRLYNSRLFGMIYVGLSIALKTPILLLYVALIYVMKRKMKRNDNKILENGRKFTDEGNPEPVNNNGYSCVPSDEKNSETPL
Description: as §1, §2

hOATP1B3 = molecular target: T3, hOATP1B3 (Homo sapiens, UniProt Q9NPD5); experiment: hOATP1B3-mediated uptake of [3H]-E1S and [3H]-TCA in transfected HEK293 cells
T3 sequence (Q9NPD5 1-702): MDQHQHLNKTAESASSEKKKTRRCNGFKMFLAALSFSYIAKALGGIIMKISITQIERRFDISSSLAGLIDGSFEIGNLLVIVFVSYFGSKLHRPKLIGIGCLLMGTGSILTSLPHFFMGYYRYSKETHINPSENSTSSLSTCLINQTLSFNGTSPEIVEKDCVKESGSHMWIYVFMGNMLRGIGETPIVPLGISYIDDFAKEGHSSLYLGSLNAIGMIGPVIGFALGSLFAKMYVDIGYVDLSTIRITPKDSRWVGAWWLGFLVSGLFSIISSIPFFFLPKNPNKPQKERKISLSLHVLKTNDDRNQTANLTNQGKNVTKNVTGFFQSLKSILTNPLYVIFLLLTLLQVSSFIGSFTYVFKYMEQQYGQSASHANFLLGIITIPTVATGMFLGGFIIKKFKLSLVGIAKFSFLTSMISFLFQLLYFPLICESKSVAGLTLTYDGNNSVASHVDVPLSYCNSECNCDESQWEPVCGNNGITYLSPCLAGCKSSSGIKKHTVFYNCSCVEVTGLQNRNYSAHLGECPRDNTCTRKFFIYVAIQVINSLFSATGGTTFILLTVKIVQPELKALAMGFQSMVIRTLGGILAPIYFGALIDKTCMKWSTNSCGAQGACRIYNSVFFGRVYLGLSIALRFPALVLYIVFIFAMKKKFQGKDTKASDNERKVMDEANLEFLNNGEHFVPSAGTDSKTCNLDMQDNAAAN
Description: To perform transporter-mediated uptake, both stably transfected cells and control cells (seeding density 2 × 10^5) were cultured for three days in 24-well plates (coated with 0.1 mg/mL poly-D-lysine hydrobromide). Then, 24 h before the start of the transport experiment, the gene expression of mOapt1b2 and rOATP1B2 was induced by 1 µg/mL tetracycline. At the beginning of each experiment, the cells were washed three times with pre-warmed 0.5 mL HBSS incubation buffer (supplemented with 20 mM HEPES, pH 7.4) and equilibrated for at least 20 min as described previously [27]. After aspirating the incubation buffer, the uptake process was started by adding 200 µL HBSS incubation buffer containing radio-labeled and unlabeled substances to each well and incubated at 37 °C for an appropriate time. The uptake was stopped by aspirating the reaction mixture and washing the cells 3 times with 0.4 mL ice-cold PBS buffer. After cell lysis with 0.6 mL of 1N NaOH overnight, the whole content of each well (0.6 mL) was transferred to a 6 mL scintillation vial (Sarstedt) containing 2.5 mL scintillation liquid (Rotiszint®eco plus, Carl Roth). The ^3H content was measured in a scintillation counter (Perkin Elmer TRICarb 2810 or HIDEX 600SL).
To verify the results for the human transporters, both substrates were tested at a concentration of 0.01 µM. All experiments were conducted at least on two separate days as triplicates.
The absolute amount (pmol) of the radio-labeled probe substrate uptake was calculated and related to the determined protein values as well as the incubation time. The transporter-mediated uptake rate (net uptake) was obtained by subtracting the uptake rate in control (vector only)-transfected HEK293 cells from the uptake rate in transporter-transfected cells. To calculate the Km of the respective substrate, the transporter-mediated net uptake (pmol/mg protein/min) was plotted against the substrate concentrations in SigmaPlot 13. Weighted nonlinear regression was used for curve fitting (ligand binding with one site saturation).

C[C@H](CCC(=O)NCCS(=O)(=O)O)[C@H]1CC[C@H]2[C@@H]3[C@H](O)C[C@@H]4C[C@H](O)CC[C@]4(C)[C@H]3C[C@H](O)[C@]12C [TCA, taurocholate]
uptake compared to vector-transfected control cells (rOATP1B2): > 70 fold | uptake compared to vector-transfected control cells (mOATP1B2; mOATP1B2, 1 µM substrate, E1S 5 min, TCA 10 min): more than 100 fold | affinity of mOATP1B2 lower than that of rOATP1B2 (mOATP1B2; ratio of Km values mOATP1B2/rOATP1B2): 4.6 fold | uptake compared to vector-transfected control cells (hOATP1B3; hOATP1B3, 0.01 µM substrate): 2.7 fold | uptake over control cells / substrate status (hOATP1B3; hOATP1B3, substrate concentration not stated at the place): 2-3 fold | Km at 10 min (hOATP1B3; human, pH 7.4): 21 ± 8 µM
